What was measured:
Assay type in all cases: physicochemical
[1] = Drug product stability against radiolysis with ascorbic acid
Method: (§1) Table 1 to Table 5 show the results of various radiolabelling experiments on radiochemical purity and the chelation yield. The radiolabelling experiments in the tables are carried out as described in: • Example 1 for when the gallium-68 source is GE Liquid target generator and EZAG GalliaPharm generator; • Example 2 for when the gallium-68 source is IRE Galli Eo generator; • Example 3 for when the gallium-68 source is GE solid target generator;
(§2) However, the experiments were carried out with the amount of ascorbic acid as indicated in the Tables 1 to 5, and the activity as indicated in the Tables 1 to 5. Radiochemical purities were measured at various times (T0, T1, T4, T6) after the radiolabelled experiments have been conducted.
(§3) The kits of Example 1, Example 2 or Example 3, with amounts of ascorbic acid as set out in Table 7 were used in the experiments for the ascorbic acid bracketing matrix. Three strengths of [^68Ga]Ga-PSMA-11 will be tested, i.e. 50 mCi/ml, 7 mCi/ml and 1 mCi/ml. Radiochemical purity was determined at different time points (TO, T1, T4 or T6), as set out in Table 7.

[2] = Visual inspection of [68Ga]PSMA-11 solution (acceptance: colourless to slightly yellow solution, free from visible particles); set-up: key: C = all results conform to specifications
Method: as §1, §2, §3

[3] = Radiochemical purity by HPLC over time after radiolabelling
Method: as §1, §2, §3

SMILES: O=C([O-])CN(CCN(CC(=O)[O-])Cc1cc(CCC(=O)NCCCCCC(=O)NCCCC[C@H](NC(=O)N[C@@H](CCC(=O)O)C(=O)O)C(=O)O)ccc1[O-])Cc1cc(CCC(=O)O)ccc1[O-].[68Ga+3].[OH3+] [[^68Ga]PSMA-11, gallium-68 radiolabelled Glu-urea-Lys-HBED-CC (gozetotide or PSMA-11)]
- time for which stability is maintained ([1]; 20 mg ascorbic acid, highest strength 48.3-51.9 mCi/mL (worst case), Table 8): up to 6 hours
- time for which the formulation is stabilized ([1]; 25 mg ascorbic acid, Table 3): up to 4 hours
- time for which ascorbic acid is an effective radio-stabilizer / stability maintained ([1]; 10-50 mg ascorbic acid, 458-560 mCi starting activity, 48.3-71.1 mCi/mL, Table 2): up to 6 hours
- stability ([1]; 18.75-31.25 mg ascorbic acid, 5.1-5.88 mCi/mL and 0.84-2.54 mCi/mL, Tables 9 and 10): stability of the [^68Ga]PSMA-11 is maintained
- Visual Inspection ([2]; 25 mg ascorbic acid, 10.2 mCi, 0.97 mCi/mL, IRE Galli Eo, n=1, T0): C
- Visual Inspection ([2]; 25 mg ascorbic acid, 10.2 mCi, 0.97 mCi/mL, IRE Galli Eo, n=1, T1 (1 h)): C
- Visual Inspection ([2]; 25 mg ascorbic acid, 19.5-20.0 mCi, 1.85-1.90 mCi/mL, EZAG GalliaPharm, n=2, T0): C
- Visual Inspection ([2]; 25 mg ascorbic acid, 19.5-20.0 mCi, 1.85-1.90 mCi/mL, EZAG GalliaPharm, n=2, T1 (1 h)): C
- Visual Inspection ([2]; 25 mg ascorbic acid, 23.3-24 mCi, 2.22-2.28 mCi/mL, IRE Galli Eo, n=2, T0): C
- Visual Inspection ([2]; 25 mg ascorbic acid, 23.3-24 mCi, 2.22-2.28 mCi/mL, IRE Galli Eo, n=2, T4 (4 h)): C
- Visual Inspection ([2]; 25 mg ascorbic acid, 46.0-46.1 mCi, 4.38-4.39 mCi/mL, EZAG GalliaPharm, n=2, T0): C
- Visual Inspection ([2]; 25 mg ascorbic acid, 46.0-46.1 mCi, 4.38-4.39 mCi/mL, EZAG GalliaPharm, n=2, T4 (4 h)): C
- Visual Inspection ([2]; control, 0 mg ascorbic acid, 70 mCi, GE Solid Target, n=1, T0): C
- Visual Inspection ([2]; control, 0 mg ascorbic acid, 70 mCi, GE Solid Target, n=1, T4 (4 h)): C
- Visual Inspection ([2]; validation batches, 25 mg ascorbic acid, 51.6-62.7 mCi, 4.56-5.88 mCi/mL, IRE Galli Eo, n=3, T0): C
- Visual Inspection ([2]; validation batches, 25 mg ascorbic acid, 51.6-62.7 mCi, 4.56-5.88 mCi/mL, IRE Galli Eo, n=3, T4 (4 h)): C
- Visual Inspection ([2]; validation batches, 25 mg ascorbic acid, 53.3-74.4 mCi, 5.03-6.92 mCi/mL, GE Liquid target, n=3, T0): C
- Visual Inspection ([2]; validation batches, 25 mg ascorbic acid, 53.3-74.4 mCi, 5.03-6.92 mCi/mL, GE Liquid target, n=3, T4 (4 h)): C
- Visual Inspection ([2]; validation batches, 25 mg ascorbic acid, 65.0-66.4 mCi, 5.74-6.15 mCi/mL, EZAG GalliaPharm, n=3, T0): C
- Visual Inspection ([2]; validation batches, 25 mg ascorbic acid, 65.0-66.4 mCi, 5.74-6.15 mCi/mL, EZAG GalliaPharm, n=3, T4 (4 h)): C
- Visual Inspection ([2]; validation batches, 25 mg ascorbic acid, 537-551 mCi, 50.2-51.6 mCi/mL, GE Solid Target, n=3, T0): C
- Visual Inspection ([2]; validation batches, 25 mg ascorbic acid, 537-551 mCi, 50.2-51.6 mCi/mL, GE Solid Target, n=3, T6 (6 h)): C
- Visual Inspection ([2]; validation batches, 25 mg ascorbic acid, 555-564 mCi, 51.1-52.7 mCi/mL, ARTMS Solid Target, n=3, T0): C
- Visual Inspection ([2]; validation batches, 25 mg ascorbic acid, 555-564 mCi, 51.1-52.7 mCi/mL, ARTMS Solid Target, n=3, T6 (6 h)): C
- Radiochemical Purity (HPLC) Ga-68 PSMA-11 (%) ([3]; 1 mg ascorbic acid, 58.7-71.1 mCi, 7.47-8.99 mCi/mL, GE Liquid target, average of 3, T0): 100%
- Radiochemical Purity (HPLC) Ga-68 PSMA-11 (%) ([3]; 1 mg ascorbic acid, 58.7-71.1 mCi, 7.47-8.99 mCi/mL, GE Liquid target, average of 3, T4 (4 h)): 100%
- Radiochemical Purity (HPLC) Ga-68 PSMA-11 (%) ([3]; 1 mg ascorbic acid, 58.7-71.1 mCi, 7.47-8.99 mCi/mL, GE Liquid target, n=3, T0): C (C = conforms to specifications)
- Radiochemical Purity (HPLC) Ga-68 PSMA-11 (%) ([3]; 1 mg ascorbic acid, 58.7-71.1 mCi, 7.47-8.99 mCi/mL, GE Liquid target, n=3, T4 (4 h)): C (C = conforms to specifications)
- Radiochemical Purity (HPLC) Ga-68 PSMA-11 (%) ([3]; 2.5 mg ascorbic acid, 49.9-76.9 mCi, 6.31-9.72 mCi/mL, GE Liquid target, average of 3, T0): 100%
- Radiochemical Purity (HPLC) Ga-68 PSMA-11 (%) ([3]; 2.5 mg ascorbic acid, 49.9-76.9 mCi, 6.31-9.72 mCi/mL, GE Liquid target, average of 3, T4 (4 h)): 100%
- Radiochemical Purity (HPLC) Ga-68 PSMA-11 (%) ([3]; 2.5 mg ascorbic acid, 49.9-76.9 mCi, 6.31-9.72 mCi/mL, GE Liquid target, n=3, T0): C (C = conforms to specifications)
- Radiochemical Purity (HPLC) Ga-68 PSMA-11 (%) ([3]; 2.5 mg ascorbic acid, 49.9-76.9 mCi, 6.31-9.72 mCi/mL, GE Liquid target, n=3, T4 (4 h)): C (C = conforms to specifications)
- Radiochemical Purity (HPLC) Ga-68 PSMA-11 (%) ([3]; 5 mg ascorbic acid, 60-69.9 mCi, 7.61-8.81 mCi/mL, 3 × GE Liquid Target, 3 × EZAG GalliaPharm, average of 6, T0): 100%
- Radiochemical Purity (HPLC) Ga-68 PSMA-11 (%) ([3]; 5 mg ascorbic acid, 60-69.9 mCi, 7.61-8.81 mCi/mL, 3 × GE Liquid Target, 3 × EZAG GalliaPharm, average of 6, T4 (4 h)): 100%
- Radiochemical Purity (HPLC) Ga-68 PSMA-11 (%) ([3]; 5 mg ascorbic acid, 60-69.9 mCi, 7.61-8.81 mCi/mL, 3 × GE Liquid Target, 3 × EZAG GalliaPharm, n=6, T0): C (C = conforms to specifications)
- Radiochemical Purity (HPLC) Ga-68 PSMA-11 (%) ([3]; 5 mg ascorbic acid, 60-69.9 mCi, 7.61-8.81 mCi/mL, 3 × GE Liquid Target, 3 × EZAG GalliaPharm, n=6, T4 (4 h)): C (C = conforms to specifications)
- Radiochemical Purity (HPLC) Ga-68 PSMA-11 (%) ([3]; 10 mg ascorbic acid, 514-520 mCi, 49.0-66.1 mCi/mL, GE Solid Target, average of 3, T0): 100%
- Radiochemical Purity (HPLC) Ga-68 PSMA-11 (%) ([3]; 10 mg ascorbic acid, 514-520 mCi, 49.0-66.1 mCi/mL, GE Solid Target, average of 3, T6 (6 h)): 100%
- Radiochemical Purity (HPLC) Ga-68 PSMA-11 (%) ([3]; 10 mg ascorbic acid, 514-520 mCi, 49.0-66.1 mCi/mL, GE Solid Target, n=3, T0): C (C = conforms to specifications)
- Radiochemical Purity (HPLC) Ga-68 PSMA-11 (%) ([3]; 10 mg ascorbic acid, 514-520 mCi, 49.0-66.1 mCi/mL, GE Solid Target, n=3, T6 (6 h)): C (C = conforms to specifications)
- Radiochemical Purity (HPLC) Ga-68 PSMA-11 (%) ([3]; 15 mg ascorbic acid, 10.0-18.4 mCi, 0.95-1.77 mCi/mL, 1 × EZAG GalliaPharm, 2 × IRE Galli Eo, average of 3, T0): 100%
- Radiochemical Purity (HPLC) Ga-68 PSMA-11 (%) ([3]; 15 mg ascorbic acid, 10.0-18.4 mCi, 0.95-1.77 mCi/mL, 1 × EZAG GalliaPharm, 2 × IRE Galli Eo, average of 3, T1 (1 h)): 100%
- Radiochemical Purity (HPLC) Ga-68 PSMA-11 (%) ([3]; 15 mg ascorbic acid, 10.0-18.4 mCi, 0.95-1.77 mCi/mL, 1 × EZAG GalliaPharm, 2 × IRE Galli Eo, n=3, T0): C (C = conforms to specifications)
- Radiochemical Purity (HPLC) Ga-68 PSMA-11 (%) ([3]; 15 mg ascorbic acid, 10.0-18.4 mCi, 0.95-1.77 mCi/mL, 1 × EZAG GalliaPharm, 2 × IRE Galli Eo, n=3, T1 (1 h)): C (C = conforms to specifications)
- Radiochemical Purity (HPLC) Ga-68 PSMA-11 (%) ([3]; 15 mg ascorbic acid, 23.7-47.6 mCi, 2.26-4.53 mCi/mL, 1 × EZAG GalliaPharm, 2 × IRE Galli Eo, average of 3, T0): 100%
- Radiochemical Purity (HPLC) Ga-68 PSMA-11 (%) ([3]; 15 mg ascorbic acid, 23.7-47.6 mCi, 2.26-4.53 mCi/mL, 1 × EZAG GalliaPharm, 2 × IRE Galli Eo, average of 3, T4 (4 h)): 100%
- Radiochemical Purity (HPLC) Ga-68 PSMA-11 (%) ([3]; 15 mg ascorbic acid, 23.7-47.6 mCi, 2.26-4.53 mCi/mL, 1 × EZAG GalliaPharm, 2 × IRE Galli Eo, n=3, T0): C (C = conforms to specifications)
- Radiochemical Purity (HPLC) Ga-68 PSMA-11 (%) ([3]; 15 mg ascorbic acid, 23.7-47.6 mCi, 2.26-4.53 mCi/mL, 1 × EZAG GalliaPharm, 2 × IRE Galli Eo, n=3, T4 (4 h)): C (C = conforms to specifications)
- Radiochemical Purity (HPLC) Ga-68 PSMA-11 (%) ([3]; 20 mg ascorbic acid, 514-544 mCi, 48.3-51.9 mCi/mL, GE Solid Target, average of 2, T0): 100%
- Radiochemical Purity (HPLC) Ga-68 PSMA-11 (%) ([3]; 20 mg ascorbic acid, 514-544 mCi, 48.3-51.9 mCi/mL, GE Solid Target, average of 2, T6 (6 h)): 100%
- Radiochemical Purity (HPLC) Ga-68 PSMA-11 (%) ([3]; 20 mg ascorbic acid, 514-544 mCi, 48.3-51.9 mCi/mL, GE Solid Target, n=2, T0): C (C = conforms to specifications)
